Test results published in US11634425B2, “Pharmaceutical compounds” (priority 2019, dated 2023).
Where two headings read alike, the source gives them in different places.

What was measured:
[1] = tested on: RSV A2; assay: RSV plaque reduction assay; assay type: cell-based, respiratory syncytial virus (RSV); conditions: human respiratory syncytial virus, HepG2, Hep-G2 cells, mean of at least two experiments
In short: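 EC50 is the 50% reduction in immunostained plaque count versus virus-control wells, interpolated from variable-slope 4-parameter fits and averaged over at least two runs. Hep-G2 cells were infected with 100 PFU/well RSV A2 premixed with compound, with the inoculum removed after 2 h. Incubation continued at 37 °C for 2 days under a CMC overlay with compound.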

[2] = Cell cytotoxicity (CC50); assay type: cell-based; conditions: human; mean of at least two experiments
In short: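 Values are means of ≥2 independent runs, rounded to whole units, from 4-parameter variable-slope curve fits. Toxicity measured in Hep-G2 cells run alongside RSV plaque-reduction assays.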

[3] = in vitro; assay type: in vitro ADME; conditions: microsomes, pH 7.4, 1 μM compound, 0.5 mg/mL protein, read-out: Liver Microsomal Stability t1/2
In short: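 Pooled liver microsomes (0.5 mg/mL protein) in 0.1 M phosphate pH 7.4 with 1 μM compound and 1 mM NADPH at 37° C., sampled at 0–45 min; minus-NADPH control at 45 min. Acetonitrile quench, LC-MS/MS; t1/2 and CLint from ln peak-area ratio vs time slope.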

[4] = in vitro; assay type: in vitro ADME; conditions: hepatocytes, 3 μM compound, read-out: Liver Hepatocyte Stability t1/2
In short: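 Test compound at 3 μM (0.25% DMSO) incubated at 37 °C with pooled cryopreserved hepatocytes, 0.5×10^6 viable cells/mL in supplemented Williams E medium, sampled at 0-60 min. Depletion followed by LC-MS/MS; t1/2 and CLint derived from the slope of ln peak area ratio versus time.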

[5] = in vivo; assay type: in vivo; conditions: male Beagle dog; for Vd / clearance / Cmax / half-life / AUC(0-t): in vivo; for Cmax / C 8 h: IV 0.5 mg/kg / PO 3 or 4 mg/kg study; for AUC(0-t): read-out: PO AUClast
Description: The pharmacokinetics of compounds were studied in vivo in dogs at doses of 0.5 mg/kg (IV) and 4 mg/kg (PO).
Male Beagle dogs were treated with experimental compounds via intravenous administration (n=2; 0.5 mg/kg) or oral administration (n=2; 3 or 4 mg/kg). Compounds were formulated as a solution in 20% dimethylacetamide/80% (2-hydroxypropyl)-β-cyclodextrin (20% w/v) (IV administration) or a solution in 10% dimethylacetamide/90% (2-hydroxypropyl)-β-cyclodextrin (20% w/v) (PO administration). […] Serial blood samples were collected from the jugular vein at 0.03, 0.08, 0.25, 0.5, 1, 2, 4, 6, 8 and 24 h post IV dosing of compound, and at 0.08, 0.25, 0.5, 1, 2, 4, 6, 8 and 24 h post oral dosing of compound, and plasma was prepared by centrifugation and stored immediately at −80° C. Samples were subsequently thawed, prepared for analysis by protein precipitation with acetonitrile, and analysed by tandem LCMS using electrospray ionisation using a matrix-matched calibration curve. PK parameters were calculated from the resulting data.

[6] = IV 0.5 mg/kg, read-out: IV t1/2 (converted)
[7] = PO 3 or 4 mg/kg, read-out: PO t1/2 (converted)

Row | Structure (SMILES) | EC50 [1] | CC50 [2] | half-life at 1 μM ([3]; dog) | half-life at 1 μM ([3]; human) | half-life at 1 μM ([3]; rat) | half-life at 3 μM ([4]; dog) | half-life at 3 μM ([4]; human) | half-life at 3 μM ([4]; rat) | Vd ([5]; IV 0.5 mg/kg) | clearance ([5]; IV 0.5 mg/kg) | Cmax [5] | half-life [5, 6] | AUC(0-t) ([5]; PO 3 or 4 mg/kg) | half-life [5, 7] | C 8 h [5] | F ([5]; IV 0.5 mg/kg, PO 3 or 4 mg/kg)
1 | CCc1ccc(-c2nn3cccnc3c2C(=O)N[C@H]2N=C(c3ccccc3)c3cccc(F)c3NC2=O)cn1 [Example 55] | 0.045 µM | > 25 µM | 1.87 h | 2.93 h | 1.01 h | 2.43 h | > 3.1 h | 1.43 h | 0.47 L/kg | 0.09 L/h/kg | 3.21 µg/mL | 5.4 h | 20.9 µg·h/mL | 6.1 h | 0.72 µg/mL | 65%
2 | O=C(N[C@H]1N=C(c2ccccc2)c2ccccc2NC1=O)c1c(-c2ccccc2F)nn2cccnc12 [Example 2, 2-(2-Fluorophenyl)-N-[(3S)-2-oxo-5-phenyl-1,3-dihydro-1,4-benzodiazepin-3-yl]pyrazolo[1,5-a]pyrimidine-3-carboxamide] | 0.039 µM | > 25 µM | 7.38 h | 3.08 h | > 2.33 h | 1.12 h | 145 h | 3.95 h | 0.92 L/kg | 0.078 L/h/kg | 1.92 µg/mL | 9.8 h | 22.3 µg·h/mL | 11.1 h | 0.968 µg/mL | 55%
3 | Cc1ccc(-c2nn3cccnc3c2C(=O)N[C@H]2N=C(c3ccccc3)c3cccc(F)c3NC2=O)cn1 [Example 50, N-[(3S)-9-fluoro-2-oxo-5-phenyl-1,3-dihydro-1,4-benzodiazepin-3-yl]-2-(6-methylpyridin-3-yl)pyrazolo[1,5-a]pyrimidine-3-carboxamide] | 0.099 µM | > 25 µM | 13.3 h | 13.4 h | 3.88 h | > 3.1 h | > 3.1 h | 96.7 h | 1.3 L/kg | 0.102 L/h/kg | 1.2 µg/mL | 12.2 h | 13.3 µg·h/mL | 16.1 h | 0.549 µg/mL | 65%
